Data on 14 molecules can be found in US20180136242A1 (Autotelic LLC, priority 2014, published 2018).

Assay [1] relates to 3C6 anti TAXOL IgG2a,k antibody. Kind of assay: Paclitaxel antibody cross-reactivity, IC50 towards taxanes (3C6). The class given is binding, mouse. The following applies: antibody 3C6; read-out: IC50 towards taxane, 3C6. The text has this:
(§1) The antibodies of the invention were generated by immunizing mice with either TAXOL® or baccatin conjugated to KLH. The antibodies are summarized as: 3C6 anti TAXOL® IgG2a,k, 3H5 anti-baccatin III IgG1, 8A10 anti-taxane IgG2a. Cross-reactivity profile of 3C6, 3H5, and 8A10 antibodies are shown by their IC50 values towards various taxanes in Table 1.

Assay [2] concerns 3H5 anti-baccatin III IgG1 antibody. As to the kind of experiment: Paclitaxel antibody cross-reactivity, IC50 towards taxanes (3H5). Type of assay: binding, mouse. Conditions: antibody 3H5; read-out: IC50 towards taxane, 3H5.
Excerpt: as §1

The test system of assay [3] is 8A10 anti-taxane IgG2a antibody. Kind of assay: Paclitaxel antibody cross-reactivity, IC50 towards taxanes (8A10). The class given is binding, mouse. The following applies: antibody 8A10.
Excerpt: as §1

A further assay deals with BSA-paclitaxel antigen (Bos taurus, UniProt P02769). Kind of assay: Direct binding ELISA of intact IgGs to BSA-paclitaxel antigen (FIG. 4). The following applies: read-out: apparent Kd. As for the experimental part:
FIG. 4 is a graph illustrating direct binding of intact IgGs (8A10 and 3C6) of the invention to a BSA-paclitaxel antigen on an ELISA.
Antibody affinity. 50 μL of BSA-paclitaxel antigen at a concentration of 3.5 μg/mL in 1× PBS was bound to a plate and incubated at 4° C. overnight. The plate was washed four ties with PBS/0.05% Tween 20. The plate was blocked for 2 hours with 1% BSA in PBS/0.05% Tween 20 at room temperature. The plate was washed four ties with PBS/0.05% Tween 20. 50 μL of antibody sample (8A10 and 3C6) was bound (start at 300 nM and titer down by 3s). The plate was washed four times with PBS/0.05% Tween 20. 50 μL of goat anti mIgG horseradish peroxidase (1:5000 dilution) was bound and then 50 μL of substrate solution TMB was added and the color allowed to develop. The reaction was stopped with 50 μL 1M HCl and the optical density was read at 450 nm.
(In an ELISA, binding on a coated surface is turned into a signal by an enzyme label.)

In assay [4] the target is T1, BSA-paclitaxel (Bos taurus, UniProt P02769). Kind of assay: Biacore T-200 SPR, antibody on the chip. The class given is binding. Conditions: Biacore T-200, antibody on the chip. (In general: Surface plasmon resonance follows binding to a sensor surface in real time, without labels.)
T1 sequence (P02769 25-607): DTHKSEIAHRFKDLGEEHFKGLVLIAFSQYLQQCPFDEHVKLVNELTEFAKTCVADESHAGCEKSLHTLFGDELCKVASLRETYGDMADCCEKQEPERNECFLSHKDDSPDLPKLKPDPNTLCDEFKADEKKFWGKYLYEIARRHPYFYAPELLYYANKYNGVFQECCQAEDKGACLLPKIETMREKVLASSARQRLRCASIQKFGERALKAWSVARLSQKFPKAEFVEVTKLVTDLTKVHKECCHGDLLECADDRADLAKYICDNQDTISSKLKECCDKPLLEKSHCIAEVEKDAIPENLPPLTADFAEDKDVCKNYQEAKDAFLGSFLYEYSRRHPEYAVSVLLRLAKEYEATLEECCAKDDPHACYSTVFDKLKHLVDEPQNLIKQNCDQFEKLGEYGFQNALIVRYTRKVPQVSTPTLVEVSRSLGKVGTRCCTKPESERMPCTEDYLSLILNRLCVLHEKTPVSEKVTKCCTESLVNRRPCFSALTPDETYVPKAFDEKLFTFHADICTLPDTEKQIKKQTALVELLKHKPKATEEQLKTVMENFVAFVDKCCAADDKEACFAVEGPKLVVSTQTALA
The target of the next assay is BSA-paclitaxel (BSA-Ag) (Bos taurus, UniProt P02769). As to the kind of experiment: Biacore 3000 SPR kinetic analysis, antigen on the chip. The class given is binding. Conditions: for Dissociation rate constant (kd) / ka: 25° C. As for the experimental part:
In this example, a method for determining antibody properties is described. The methods were carried out by Precision Antibody, Inc. (Columbia, Md.) using a Biacore Assay.
Binding experiments were performed on a Biacore 3000 instrument (GE, Pittsburgh, Pa.) at 25° C. Approximately 13,000 RU of anti-BSA ab (Life Technologies, A11133, lot 1637270) was directly immobilized on flow cell 2 of CM5 chip by amine coupling (EDC/NHS). 110-120 RU of BSA-paclitaxel (BSA-Ag) was captured. Flow cell 1 was treated the same way but without the ligand and used as a blank surface for reference subtraction. The unoccupied sites were blocked with 1 M ethanol amine. Analytes Ab 1 (8A10) and Ab2 (3C6) were flowed over the chip at variable concentrations. Binding of antigen to the antibodies was monitored in real time to obtain on (ka) and off (kd) rates. The equilibrium constant (KD) was calculated from the observed ka and kd.
Full kinetic analysis was performed using analyte concentrations as indicated with 2-fold serial dilutions. The starting concentration was 200 nM, followed by 100, 50, 25, 12.5, and 0 nM. The 100 nM concentration was run in duplicates to confirm the reproducibility of the assay.
The assay buffer was 10 mM HEPES buffer (pH 7.4), 150 mM NaCl, 3 mM EDTA, 0.05% P20 (polyoxyethylenesorbitan). The regeneration buffer was 10 mM Glycine buffer (pH 2.0). The conjugation buffer was 10 mM sodium acetate buffer (pH 5.0). The flow rate used for capturing the ligand was 1 μL/min. The flow rate for kinetics analysis was 50 μL/min.
Chi square (χ^2) analysis was carried out between the actual sensorgram and the sensorgram generated from the BlAnalysis software to determine the accuracy of the analysis. A χ^2 value within 1-2 is considered significant (accurate) and below 1 is highly significant (highly accurate).

Assay [5] has as its target T1, BSA-paclitaxel. As to the kind of experiment: Biacore 3000 SPR, antibody on the chip. The class given is binding. The following applies: Biacore 3000, antibody on the chip (3C6: single point).
Where [6] appears, read: BSA-Ag (110RU) ligand, full kinetic analysis.
The mark [7] stands for this setting: BSA-Ag (110RU) ligand, calculated from ka and kd.
[8] abbreviates: Biacore 3000, antigen on the chip.

Some results are limits rather than exact numbers.

BSA-paclitaxel (BSA-Ag), sequence (P02769 25-607): as above
BSA-paclitaxel antigen, sequence (P02769 25-607): as above

By IC50 is commonly meant the point on the concentration scale where inhibition reaches its midpoint. As for `CC(=O)O[C@H]1C(=O)[C@@]2(C)[C@H]([C@H](OC(=O)c3ccc(C(F)(F)F)cc3)[C@]3(O)C[C@H](OC(=O)[C@H](O)[C@@H](NC(=O)c4ccccc4)c4ccccc4)C(C)=C1C3(C)C)[C@]1(OC(C)=O)CO[C@@H]1C[C@@H]2O` [2-debenzoyl-2-(p-trifluoromethylbenzoyl)taxol], the IC50 in assay [1], in assay [2] and in assay [3] was greater than 293 nM each time.
`CC(=O)O[C@@]12CO[C@@H]1C[C@@H](O)[C@@]1(C)C(=O)[C@H](O)C3=C(C)[C@@H](O)C[C@@](O)([C@@H](OC(=O)c4ccccc4)[C@H]21)C3(C)C` [7-epi-10-deacetylbaccatin III]: the IC50 in assay [1] was greater than 469 nM; in assay [2], 150 nM; in assay [3] it was 27 nM.
For `CC(=O)O[C@@]12CO[C@@H]1C[C@H](O)[C@@]1(C)C(=O)[C@H](O)C3=C(C)[C@@H](OC(=O)[C@H](O)[C@@H](NC(=O)c4ccccc4)c4ccccc4)C[C@@](O)([C@@H](OC(=O)c4ccccc4)[C@H]21)C3(C)C` [7-epi-10-deacetyltaxol], the values for the IC50 in assay [1], in assay [2] and in assay [3] were 25 nM, greater than 333 nM and 15 nM, respectively.
Taken in the same sequence, the figures for `CC(=O)O[C@H]1C(=O)[C@@]2(C)[C@H]([C@H](OC(=O)c3ccccc3)[C@]3(O)C[C@H](OC(=O)[C@H](O)[C@@H](NC(=O)c4ccccc4)c4ccccc4)C(C)=C1C3(C)C)[C@]1(OC(C)=O)CO[C@@H]1C[C@@H]2O` [7-epi-taxol] were 80 nM, greater than 316 nM and 50 nM.
In the case of `CC(=O)O[C@@]12CO[C@@H]1C[C@H](O[C@@H]1OC[C@@H](O)[C@H](O)[C@H]1O)[C@@]1(C)C(=O)[C@H](O)C3=C(C)[C@@H](OC(=O)[C@H](O)[C@@H](NC(=O)c4ccccc4)c4ccccc4)C[C@@](O)([C@@H](OC(=O)c4ccccc4)[C@H]21)C3(C)C` [7-xylosyl-10-deacetyltaxol], the IC50 is 30 nM in assay [1], greater than 286 nM in assay [2] and 17 nM in assay [3].
Taken in the same sequence, the figures for `CC(=O)O[C@@]12CO[C@@H]1C[C@H](O)[C@@]1(C)C(=O)[C@H](O)C3=C(C)[C@@H](O)C[C@@](O)([C@@H](OC(=O)c4ccccc4)[C@H]21)C3(C)C` [10-deacetylbaccatin III] were greater than 551 nM, 230 nM and 21 nM.
For `CC(=O)O[C@@]12CO[C@@H]1C[C@H](O)[C@@]1(C)C(=O)[C@H](O)C3=C(C)[C@@H](OC(=O)[C@H](O)[C@@H](NC(=O)c4ccccc4)c4ccccc4)C[C@@](O)([C@@H](OC(=O)c4ccccc4)[C@H]21)C3(C)C` [10-deacetyltaxol], the figures for the IC50 in assay [1], in assay [2] and in assay [3] were 15 nM, greater than 333 nM and 10 nM, respectively.
For `CC(=O)OC[C@@]1(O)[C@H]2[C@H](OC(=O)c3ccccc3)[C@]3(O)C[C@H](OC(=O)[C@H](O)[C@@H](NC(=O)c4ccccc4)c4ccccc4)C(C)=C([C@@H](OC(C)=O)C(=O)[C@]2(C)[C@@H](O)C[C@@H]1O)C3(C)C` [20-acetoxy-4-deacetyl-5-epi-20,O-secotaxol], the half-maximal inhibitory concentration (IC50) is greater than 310 nM in assay [1], greater than 310 nM in assay [2] and greater than 293 nM in assay [3].
Consider `CC(=O)O[C@H]1C(=O)[C@@]2(C)[C@H]([C@H](OC(=O)c3ccccc3)[C@]3(O)C[C@H](O)C(C)=C1C3(C)C)[C@]1(OC(C)=O)CO[C@@H]1C[C@@H]2O` [baccatin III], for which the results for the IC50 in assay [1], in assay [2] and in assay [3] were greater than 511 nM, 10 nM and 12 nM, respectively.
For `CC(=O)O[C@H]1C(=O)[C@]2(C)[C@H](O)C[C@H]3OC[C@@]3(OC(C)=O)[C@H]2[C@H](OC(=O)c2ccccc2)[C@]2(O)C[C@H](O)C(C)=C1C2(C)C` [baccatin V], the IC50 was greater than 460 nM in assay [1], 10 nM in assay [2] and 10 nM in assay [3].
Consider `C/C=C(\C)C(=O)N[C@@H](c1ccccc1)[C@@H](O)C(=O)O[C@H]1C[C@@]2(O)[C@@H](OC(=O)c3ccccc3)[C@@H]3[C@]4(OC(C)=O)CO[C@@H]4C[C@H](O)[C@@]3(C)C(=O)[C@H](OC(C)=O)C(=C1C)C2(C)C` [cephalomannine], for which the 50% inhibitory concentration (IC50) in assay [1] is 220 nM; in assay [2] it was greater than 325 nM; in assay [3], 8 nM.
Taken in the same sequence, the figures for `CC(=O)O[C@H]1C(=O)[C@@]2(C)[C@H]([C@H](OC(=O)c3ccccc3)[C@]3(O)C[C@H](OC(=O)[C@H](O)[C@@H](NC(=O)c4ccccc4)c4ccccc4)C(C)=C1C3(C)C)[C@]1(OC(C)=O)CO[C@@H]1C[C@@H]2O` [paclitaxel (TAXOL ®), paclitaxel] were 10 nM, greater than 316 nM and 7 nM.

B1: 8A10: anti-taxane IgG2a mouse monoclonal antibody; variable regions SEQ ID NOS: 2 and 4 (antibody, V domains shown)
VL: DIVMTQSQKFMSITLGERVSITCKPSQNVGSAVTWWQQKPGQSPKLLIYSASNRYTGVPDRFTGSGSGTDFTLTISNVQSEDLADYFCQQYSSYPYTFGGGTKLEIKR
VH: EVQLQQSGPELVKPGASVKISCKASGYTFTDSTMNWVKQSHGKSLEWIGEIDPNNGGTNYNQKFKGKATLTVDKSSSTAYMELRSLTSEDSAVYYCARGVWGQGTTLTVSS
modifications: mouse IgG2a constant regions
Regarding B1, the Kd with BSA-paclitaxel antigen was roughly 10 nM. In the assay with BSA-paclitaxel [4], the Kd came to 3.6 nM, the Off-rate is reported as 8.7 × 10^−4, the On-rate is listed as 2.4 × 10^5 and the Rmax is recorded as 8.6. Also, in the assay with BSA-paclitaxel (BSA-Ag) (setting [6]), the “Dissociation rate constant (kd)” value is 0.000304 s⁻¹, the ka was 470000 M⁻¹ s⁻¹, the KA worked out at 1.55e+09 M⁻¹ and the Rmax is 4.01. Also, in the assay with BSA-paclitaxel (BSA-Ag) (setting [7]), the Kd is 0.645 nM. Also, in the assay with BSA-paclitaxel (BSA-Ag) (setting [8]), the Kd was determined as 0.65 nM, the Off-rate is given as 3.0 × 10^−4, the On-rate is given as 4.7 × 10^5 and the Rmax is reported as 4.0. In addition, in the assay with BSA-paclitaxel [5], the Kd worked out at 1.3 nM, the Off-rate is 2.0 × 10^−3, the On-rate is given as 1.6 × 10^6 and the Rmax is on record as 3.6.

B2: 3C6 (antibody, V domains shown)
VH: EVQLQESGPSLVKPSQTLSLTCSVTGDSITSGYWNWIRKFPGNRLEYMGYISYSGSTYYNPSLKSRISITRDTSKNQYYLHLTSVTTEDTATYYCAQGDGAYWGQGTTLTVSS
VL: DVVMTQTPLSLPVSLGDQASISCRSRQSLVHSNGNTYLHWYLQKPGQSPKLLIYKVSNRFSGVPDRFSGSGSGTEFTLEISRVEAEDLGVYFCSQSTHVPPTFGGGTKLEIK
Regarding B2, in the assay with BSA-paclitaxel antigen, the Kd is roughly 10 nM. In addition, in the assay with BSA-paclitaxel [4], the Kd stood at 12 nM, the Off-rate is 2.2 × 10^−4, the On-rate is listed as 1.8 × 10^4 and the Rmax is listed as 112. In the assay with BSA-paclitaxel (BSA-Ag) (setting [6]), the “Dissociation rate constant (kd)” value was determined as 0.000967 s⁻¹, the ka is 20500 M⁻¹ s⁻¹, the KA came to 2.12e+07 M⁻¹ and the Rmax turned out to be 15.6. Further, the Kd with BSA-paclitaxel (BSA-Ag) (setting [7]) is 47.2 nM. Besides, in the assay with BSA-paclitaxel (BSA-Ag) (setting [8]), the Kd was 47 nM, the Off-rate was 9.7 × 10^−4, the On-rate is reported as 2.1 × 10^4 and the Rmax was determined as 15.6. In the assay with BSA-paclitaxel [5], the Kd turned out to be 10 nM, the Off-rate is 2.9 × 10^−4, the On-rate is 2.8 × 10^4 and the Rmax was 54.4.
